From PMC7155171, “Probing the Open Global Health Chemical Diversity Library for Multistage-Active Starting Points for Next-Generation Antimalarials” (ACS Infectious Diseases, 2020)
Where two headings read alike, the source gives them in different places.

What was measured:
Type in all cases: cell-based, Plasmodium falciparum
[1] = system: P. falciparum (NF54) stage V gametocytes; experiment: Stage V gametocyte viability assay (MitoTracker Red CMXRos high content imaging); conditions: Plasmodium falciparum, NF54, 72 h; for inhibition at 2 µM: read-out: Stg V Gam primary screen: Inhibition % (2uM) (n=2)
[2] = system: P. falciparum Dd2 (PfLuc) line expressing firefly luciferase, asexual blood stage; experiment: microbe, parasite or virus in culture; conditions: Plasmodium falciparum
P. falciparum Dd2 = experiment: SYBR green I asexual blood stage proliferation assay (96 h); conditions: Plasmodium falciparum, DD2, Sybr Green I, 11-pt dose response, 96hr; for IC50: read-out: CDD P. falciparum Sybr Green I ABS 11-pt Reconfirmation Dose Response (96hr): IC50
[3] = read-out: Stg V Gam dose response IC50 (µM) (n=3), 10-point dose response, n=3, 72 h
[4] = DD2, read-out: CDD P. falciparum Luciferase ABS 11-pt Reconfirmation Dose Response (48hr): IC50 (μM), 11-pt dose response, 48hr
[5] = DD2, 8-pt dose response, 96hr, read-out: CDD P. falciparum Luciferase ABS 8-pt Reconfirmation Dose Response (96hr): IC50
[6] = DD2, 8-pt dose response, 96hr, read-out: CDD P. falciparum Luciferase ABS 8-pt Reconfirmation Dose Response (96hr): Maximum inhibition (%)
[7] = DD2, 11-pt dose response, 96hr, read-out: CDD P. falciparum Luciferase ABS 11-pt Reconfirmation Dose Response (96hr): IC50
[8] = DD2, 11-pt dose response, 96hr, read-out: CDD P. falciparum Luciferase ABS 11-pt Reconfirmation Dose Response (96hr): Maximum inhibition (%)
[9] = DD2, 11-pt dose response, 48hr, read-out: CDD P. falciparum Luciferase ABS 11-pt Reconfirmation Dose Response (48hr): Maximum inhibition (%)
[10] = DD2, 8-pt dose response, 96hr, read-out: P. falciparum Luciferase ABS 8-pt Reconfirmation Dose Response (96hr): IC50
[11] = DD2, 8-pt dose response, 96hr, read-out: P. falciparum Luciferase ABS 8-pt Reconfirmation Dose Response (96hr): Maximum inhibition (%)
[12] = read-out: GAM V IC50, stage V gametocytes, 72 h

Row | SMILES | IC50 [1, 3] [µM] | inhibition at 2 µM [1] [%] | IC50 [2, 10] [µM] | IC50 [1, 12] [µM] | also measured
1 | NC(=O)c1cccc2nc([C@H]3CCN(Cc4ccccn4)C3)[nH]c12 [DDD01025389, NC(=O)C1=C2NC(=NC2=CC=C1)[C@H]1CCN(CC2=CC=CC=N2)C1] | 0.125 | – | – | – | IC50 [2, 4]: 0.058 µM; IC50 [2, 5]: 0.0339 µM; Emax [2, 6]: 98.4%; IC50 [2, 7]: 0.0101 µM; Emax [2, 8]: 101%; IC50 (P. falciparum Dd2): 80.7 nM; Emax (P. falciparum Dd2; read-out: CDD P. falciparum Sybr Green I ABS 11-pt Reconfirmation Dose Response (96hr): Maximum inhibition (%)): 86.6%
2 | COc1ccc(NC(=O)Cn2nc(C)c(C(C)=O)c2C)cc1 [DDD01027600, COC1=CC=C(NC(=O)CN2N=C(C)C(C(C)=O)=C2C)C=C1] | 3.74 | 53.5 | – | – | IC50 [2, 4]: 1.9 µM; IC50 [2, 5]: 0.49 µM; Emax [2, 6]: 92.8%; Emax [2, 9]: 87%; IC50 [2, 7]: 1.45 µM; Emax [2, 8]: 92.8%; IC50 (P. falciparum Dd2): 4580 nM
3 | CN(Cc1ccco1)C[C@H]1OC[C@@H]2CCN(Cc3ccccn3)C[C@@H]21 [DDD01033585, CN(C[C@H]1OC[C@@H]2CCN(CC3=CC=CC=N3)C[C@H]12)CC1=CC=CO1] | 3.17 | 76 | 1.65 | – | Emax [2, 11]: 91.7%
4 | Cc1cccc(CN2CCCC2c2cccc(Nc3nccs3)n2)c1 (centres unmarked) [DDD01057018, CC1=CC=CC(CN2CCCC2C2=CC=CC(NC3=NC=CS3)=N2)=C1] | 0.115 | 90.4 | – | 0.12 | IC50 [2, 4]: 0.914 µM; IC50 [2, 5]: 1.04 µM; Emax [2, 6]: 94.6%; Emax [2, 9]: 93.5%; IC50 [2, 7]: 0.53 µM; Emax [2, 8]: 101%
5 | CN(CCc1cccc2ccccc12)Cc1nc(N)nc(N(C)C)n1 [DDD01076782, CN(CCC1=C2C=CC=CC2=CC=C1)CC1=NC(N)=NC(=N1)N(C)C] | 3.99 | 74.3 | 1.67 | – | –
6 | CSc1ccc(-c2nc(CN3CCC(CN)C3)c(C)o2)cc1 (centres unmarked) [DDD01250168, CSC1=CC=C(C=C1)C1=NC(CN2CCC(CN)C2)=C(C)O1] | 2.42 | 63 | 1.6 | – | Emax [2, 11]: 93.1%
7 | CCN(CCN(C)C)c1nc(CCN)nc2sc(C)c(C)c12 [DDD01251823, CCN(CCN(C)C)C1=C2C(C)=C(C)SC2=NC(CCN)=N1] | 4.42 | 58.8 | 1.8 | – | Emax [2, 11]: 92.8%
8 | Cc1ccc(-c2nc(CNC(C)CCO)[nH]c2-c2ccccn2)cc1 (centres unmarked) [DDD01253542, CC(CCO)NCC1=NC(=C(N1)C1=CC=C(C)C=C1)C1=CC=CC=N1] | 1.09 | 70.9 | 1.81 | 1.09 | –
9 | CCSCCNc1nc(-c2ccccn2)nc2c1c(C)nn2C [DDD01253625, CCSCCNC1=C2C(C)=NN(C)C2=NC(=N1)C1=CC=CC=N1] | 1.89 | 58.4 | – | 1.88 | –
10 | Cc1nn(C)c2nc(-c3ccccn3)nc(NCCCOC(C)C)c12 [DDD01254389, CC(C)OCCCNC1=C2C(C)=NN(C)C2=NC(=N1)C1=CC=CC=N1] | 1.71 | 61.4 | – | 1.71 | –
11 | Cc1cc(CN(C)c2nc(-c3ccccn3)nc3c2CCNCC3)n[nH]1 [DDD01255965, CN(CC1=CC(C)=NN1)C1=NC(=NC2=C1CCNCC2)C1=CC=CC=N1] | 0.875 | 61.9 | – | 0.88 | IC50 ([2]; 96 h incubation, Dd2 luciferase, read-out: 96 hour Pfluc IC50): > 10 µM
12 | Cc1cc2nc(C(C)C)cc(NCC(c3ccccn3)N(C)C)n2n1 (centres unmarked) [DDD01256956, CC(C)C1=NC2=CC(C)=NN2C(NCC(N(C)C)C2=CC=CC=N2)=C1] | 0.933 | 64.8 | – | – | –
13 | Cc1cnc2c(S(=O)(=O)NC3CCS(=O)(=O)C3)cccc2c1 (centres unmarked) [DDD01296003, CC1=CN=C2C(C=CC=C2S(=O)(=O)NC2CCS(=O)(=O)C2)=C1] | 2.28 | 76.3 | – | – | –
14 | COc1cc(CNC(c2ccccc2)c2nccn2C)cc(OC)c1 (centres unmarked) [DDD01296506, COC1=CC(OC)=CC(CNC(C2=NC=CN2C)C2=CC=CC=C2)=C1] | 0.513 | 58.3 | – | – | –
15 | Cc1cnn(CC2CCCN2Cc2nc(C)c3ccccc3n2)c1 (centres unmarked) [DDD01298810, CC1=CN(CC2CCCN2CC2=NC(C)=C3C=CC=CC3=N2)N=C1] | 0.296 | 51.9 | – | – | –
16 | Cc1nnc(NCc2ccccc2Cl)c(C#N)c1C [DDD01302395, CC1=NN=C(NCC2=CC=CC=C2Cl)C(C#N)=C1C] | > 9.58 | 68.1 | – | – | –
